Reference: US20070128217A1 (priority 2003, published 2007)

Columns and labels:
[1] = system: recombinant human anti-SARS-CoV antibody 03-018; assay type: binding; set-up: Binding of antibody 03-018 to linear peptides of the N protein of SARS-CoV Urbani / Binding of antibody 03-018 to looped/cyclic peptides of the N protein of SARS-CoV Urbani: unit not given here
[2] = system: control sera (pooled serum of ten healthy LUMC hospital workers; commercial negative donor pooled serum from the Dutch bloodbank); assay type: binding, human; set-up: Binding of Control serum LUMC to linear peptides / Binding of Control serum Blood-bank to linear peptides / Binding of Control serum LUMC to looped peptides / Binding of Control Serum Blood-Bank to Looped peptides / Binding of Control serum LUMC to linear peptides of the protein M of SARS-CoV Urbani / Binding of Control serum Blood-bank to linear peptides of the protein M of SARS-CoV Urbani / Binding of Control serum LUMC to looped peptides of the protein M of SARS-CoV Urbani / Binding of Control Serum Blood-Bank to Looped peptides of the protein M of SARS-CoV Urbani: unit not given here
[3] = system: antibodies in sera from SARS patients (sera 1a, 1b, 2, 6, 37, 62, London, SARS-yellow, SARS-green); assay type: binding, human; set-up: Binding of serum 6 to linear peptides of protein X1 of SARS-CoV Urbani / Binding of serum 37 to linear peptides of protein X1 of SARS-CoV Urbani / Binding of serum 6 to looped/cyclic peptide (PEPSCAN-ELISA) / Binding of serum 37 to looped/cyclic peptide (PEPSCAN-ELISA) / Binding of serum 37 to looped/cyclic peptides of protein X1 of SARS-CoV Urbani / Binding of serum 6 to linear peptides of protein X2 / Binding of serum 37 to linear peptides of protein X2 / Binding of serum 37 to looped/cyclic peptides of protein X2 of SARS-CoV Urbani / Binding of serum 6 to linear peptides of protein M of SARS-CoV Urbani / Binding of serum 37 to linear peptides of protein M of SARS-CoV Urbani / Binding of serum 6 to looped/cyclic peptides of protein M of SARS-CoV Urbani / Binding of serum 37 to looped/cyclic peptides of protein M of SARS-CoV Urbani / Binding of serum 6 to linear peptides of protein X3 of SARS-CoV Urbani / Binding of serum 37 to linear peptides of protein X3 of SARS-CoV Urbani / Binding of serum 37 to looped/cyclic peptides of protein X3 of SARS-CoV Urbani / Binding of serum 6 to linear peptides of protein X4 of SARS-CoV Urbani / Binding of serum 37 to linear peptides of protein X4 of SARS-CoV Urbani / Binding of serum 37 to looped/cyclic peptides of protein X4 of SARS-CoV Urbani / Binding of serum 6 to linear peptides of protein X5 of SARS-CoV Urbani / Binding of serum 37 to linear peptides of protein X5 of SARS-CoV Urbani / Binding of serum 37 to looped/cyclic peptides of protein X5 of SARS-CoV Urbani / Binding of serum 6 to linear peptides of protein N of SARS-CoV Urbani / Binding of serum 37 to linear peptides of protein N of SARS-CoV Urbani / Binding of serum 6 to linear peptide (PEPSCAN-ELISA) / Binding of serum 1a to looped/cyclic peptides of protein N of SARS-CoV Urbani / Binding of serum 1b to looped/cyclic peptides of protein N of SARS-CoV Urbani / Binding of serum 2 to looped/cyclic peptides of protein N of SARS-CoV Urbani / Binding of serum 6 to looped/cyclic peptides of protein N of SARS-CoV Urbani / Binding of serum 37 to looped/cyclic peptides of protein N of SARS-CoV Urbani / Binding of serum 62 to looped/cyclic peptides of protein N of SARS-CoV Urbani / Binding of serum London to looped/cyclic peptides of protein N of SARS-CoV Urbani / Binding of serum SARS-green to looped/cyclic peptides of protein N of SARS-CoV Urbani: unit not given here
[4] = system: rabbit serum obtained by immunizing a rabbit with the SARS-CoV strain Frankfurt 1; assay type: binding; set-up: Binding of a rabbit serum to linear peptides / Binding of a rabbit serum to looped peptides / Rabbit serum linear peptides / Rabbit serum looped peptides / Binding of a rabbit serum to linear peptides of protein N of SARS-CoV Urbani (Rabbit serum linear peptides) / Binding of a rabbit serum to looped/cyclic peptides of protein N of SARS-CoV Urbani (Rabbit serum looped peptides): unit not given here

| Sequence | Binding of antibody 03-018 to linear peptides of the N protein of SARS-CoV Urbani [1] | Binding of antibody 03-018 to looped/cyclic peptides of the N protein of SARS-CoV Urbani [1] | Binding of serum 1a to linear peptides of protein N of SARS-CoV Urbani [3] | Binding of serum 1a to looped/cyclic peptides of protein N of SARS-CoV Urbani [3] | Binding of serum 1b to linear peptides of protein N of SARS-CoV Urbani [3] | Binding of serum 1b to looped/cyclic peptides of protein N of SARS-CoV Urbani [3] | Binding of serum 2 to linear peptides of protein N of SARS-CoV Urbani [3] | Binding of serum 2 to looped/cyclic peptides of protein N of SARS-CoV Urbani [3] | Binding of serum 6 to linear peptides of protein N of SARS-CoV Urbani [3] | Binding of serum 6 to looped/cyclic peptides of protein N of SARS-CoV Urbani [3] | Binding of serum 37 to linear peptides of protein N of SARS-CoV Urbani [3] | Binding of serum 37 to looped/cyclic peptides of protein N of SARS-CoV Urbani [3] | Binding of serum 62 to linear peptides of protein N of SARS-CoV Urbani [3] | Binding of serum 62 to looped/cyclic peptides of protein N of SARS-CoV Urbani [3] | Binding of serum London to linear peptides of protein N of SARS-CoV Urbani [3] | Binding of serum London to looped/cyclic peptides of protein N of SARS-CoV Urbani [3] | Binding of serum SARS-green to linear peptides of protein N of SARS-CoV Urbani [3] | Binding of serum SARS-green to looped/cyclic peptides of protein N of SARS-CoV Urbani [3] | Binding of serum SARS-yellow to linear peptides of protein N of SARS-CoV Urbani [3] | Binding of serum SARS-yellow to looped/cyclic peptides of protein N of SARS-CoV Urbani [3] | further results |
| --- | --- | --- | --- | --- | --- | --- | --- | --- | --- | --- | --- | --- | --- | --- | --- | --- | --- | --- | --- | --- | --- |
| LPNNTASWFTALTQH | 0.1 | 0.3 | 0.2 | 0.4 | 0.1 | 0.3 | 0.2 | 0.4 | 0.1 | 0.3 | 0.7 | 0.8 | 0.7 | 0.7 | 0.4 | 0.3 | 0.3 | 0.7 | 0.5 | 0.7 | Binding of Control Serum Blood-Bank to Looped peptides [2]: 0.8; Binding of Control serum Blood-bank to linear peptides [2]: 0.7; Binding of Control serum LUMC to linear peptides [2]: 0.7; Binding of Control serum LUMC to looped peptides [2]: 0.7; Binding of a rabbit serum to linear peptides of protein N of SARS-CoV Urbani (Rabbit serum linear peptides) [4]: 0.1; Binding of a rabbit serum to looped/cyclic peptides of protein N of SARS-CoV Urbani (Rabbit serum looped peptides) [4]: 0.6 |
| YKTFPPTEPKKDKKK | 0.1 | 0.2 | 0.2 | 0.2 | 0.1 | 0.1 | 0.5 | 0.1 | 0.2 | 0.0 | 0.7 | 0.4 | 0.7 | 0.2 | 0.5 | 0.3 | 0.2 | 0.0 | 0.8 | 0.2 | Control Serum Blood-Bank Looped peptides [2]: 0.3; Control serum Blood-bank linear peptides [2]: 0.7; Control serum LUMC linear peptides [2]: 0.6; Control serum LUMC looped peptides [2]: 0.3; Binding of a rabbit serum to linear peptides of protein N of SARS-CoV Urbani (Rabbit serum linear peptides) [4]: 0.2; Binding of a rabbit serum to looped/cyclic peptides of protein N of SARS-CoV Urbani (Rabbit serum looped peptides) [4]: 0.2 |
| PTVTLLPAADMDDFS | 0.1 | 0.2 | 0.3 | 0.2 | 0.2 | 0.2 | 0.2 | 0.3 | 0.1 | 0.1 | 1.4 | 0.4 | 0.9 | 0.2 | 0.6 | 0.2 | 1.9 | 0.7 | 0.7 | 0.1 | Control Serum Blood-Bank Looped peptides [2]: 0.3; Control serum Blood-bank linear peptides [2]: 0.8; Control serum LUMC linear peptides [2]: 0.7; Control serum LUMC looped peptides [2]: 0.3; Binding of a rabbit serum to linear peptides of protein N of SARS-CoV Urbani (Rabbit serum linear peptides) [4]: 0.1; Binding of a rabbit serum to looped/cyclic peptides of protein N of SARS-CoV Urbani (Rabbit serum looped peptides) [4]: 0.0 |
| PRGQGVPINTNSGPD | 0.1 | 0.2 | 0.2 | 0.2 | 0.1 | 0.1 | 0.1 | 0.2 | 0.1 | 0.1 | 0.6 | 0.3 | 0.4 | 0.2 | 0.4 | 0.2 | 0.2 | 0.1 | 0.6 | 0.1 | Binding of Control Serum Blood-Bank to Looped peptides [2]: 0.4; Binding of Control serum Blood-bank to linear peptides [2]: 0.7; Binding of Control serum LUMC to linear peptides [2]: 0.5; Binding of Control serum LUMC to looped peptides [2]: 0.3; Binding of a rabbit serum to linear peptides of protein N of SARS-CoV Urbani (Rabbit serum linear peptides) [4]: 0.1; Binding of a rabbit serum to looped/cyclic peptides of protein N of SARS-CoV Urbani (Rabbit serum looped peptides) [4]: 0.0 |
